This passage reports IC50 results from patent publication US8354436B2 (4SC Discovery GmbH, priority 2011, dated 2013).

Like-named read-outs stand apart in the source and are kept apart here.

Format in all cases: cell-based
What all share (conditions): 48 hours

The test system of assay [1] is PBMC from healthy human donors. The experiment in a line: T cell proliferation assay (PHA-stimulated human PBMC, BrdU ELISA). A digest of the protocol:
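Proliferation was quantified by BrdU ELISA 48 hours after starting culture of 1×10⁵ human PBMC per well with test compound and 2 μg/ml phytohaemagglutinin. Cells came from healthy donors via Ficoll separation and were kept in RPMI1640 with 10% dialysed heat-inactivated FCS.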
In general terms: Uptake of a labelled nucleoside into DNA is a usual measure of proliferation.

The subject of another assay is IFN-γ. The experiment in a line: IFN-γ production by PHA-stimulated human PBMC (OptEIA human IFN-g ELISA). A digest of the protocol:
(§1)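 Supernatant cytokine levels are read by bead-based Luminex or sandwich ELISA after 48 h culture of PHA-stimulated (2 μg/ml) human PBMC with compound. Cells are seeded at 1×10^5 per well; IC50 values derive from semilogarithmic dilution series.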
(ELISA stands for enzyme-linked immunosorbent assay.)

Another assay has as its system IL-17FF. The experiment in a line: IL-17FF production by PHA-stimulated human PBMC (human IL-17F ELI-Pair). A digest of the protocol:
as §1

The mark [2] stands for this setting: PHA-stimulated human PBMC, column D, read-out: IC50 (Tcell proliferation).
[3] abbreviates: PHA-stimulated human PBMC, column C, read-out: IC50 (IFNγ).
[4] abbreviates: PHA-stimulated human PBMC, column B, read-out: IC50 (IL-17FF).
Setting [5] is: human PBMC, 2 μg/ml PHA, read-out: D: IC50 (Tcell proliferation).
Setting [6] is: human PBMC, 2 μg/ml PHA, read-out: C: IC50 (IFNγ).
Where [7] appears, read: human PBMC, 2 μg/ml PHA, read-out: B: IC50 (IL-17FF).

Consider `CCOC(=O)c1c(-c2onc(-c3c(F)cccc3Cl)c2C(=O)OC)cnn1-c1ccc(F)cc1F` [Example I-35, methyl 3-(2-chloro-6-fluorophenyl)-5-(1-(2,4-difluorophenyl)-5-(ethoxycarbonyl)-1H-pyrazol-4-yl)isoxazole-4-carboxylate], for which the IC50 (in assay [1] (setting [2]); in the assay on IFN-γ (setting [3]); in the assay with IL-17FF (setting [4])) was 100 to 1000 nM in each case.

Take `CCOC(=O)c1csc(-c2c(-c3c(F)cccc3Cl)noc2-c2cnn(-c3cccc(F)c3)c2C(F)(F)F)n1` [Example B-1, ethyl 2-(3-(2-chloro-6-fluorophenyl)-5-(1-(3-fluorophenyl)-5-(trifluoromethyl)-1H-pyrazol-4-yl)isoxazol-4-yl)thiazole-4-carboxylate]: the IC50 (in assay [1] (setting [5]); in the assay on IFN-γ (setting [6]); in the assay on IL-17FF (setting [7])) was 100 to 1000 nM each time.

In the case of `Oc1csc(-c2c(-c3c(F)cccc3Cl)noc2-c2cnn(-c3cccc(F)c3)c2C(F)(F)F)n1` [Example 9, 2-(3-(2-chloro-6-fluorophenyl)-5-(1-(3-fluorophenyl)-5-(trifluoromethyl)-1H-pyrazol-4-yl)isoxazol-4-yl)thiazol-4-ol], the IC50 (in assay [1] (setting [5]); in the assay with IFN-γ (setting [6]); in the assay on IL-17FF (setting [7])) was 100 to 1000 nM in each case.

In the case of `CNC(=O)c1c(-c2c(Cl)cccc2Cl)noc1-c1cnn(-c2cccc(F)c2)c1C(F)(F)F` [Example I-110, 3-(2,6-dichlorophenyl)-5-(1-(3-fluorophenyl)-5-(trifluoromethyl)-1H-pyrazol-4-yl)-N-methylisoxazole-4-carboxamide], the IC50 (in assay [1] (setting [2]); in the assay with IFN-γ (setting [3]); in the assay on IL-17FF (setting [4])) was 10 to 100 nM in each case.

In the case of `CCOC(=O)c1c(-c2c(Cl)cncc2Cl)noc1-c1cnn(-c2ccncc2)c1C(F)(F)F` [IB-10, ethyl 3-(3,5-dichloropyridin-4-yl)-5-(1-(pyridin-4-yl)-5-(trifluoromethyl)-1H-pyrazol-4-yl)isoxazole-4-carboxylate], the IC50 (in assay [1] (setting [2]); in the assay with IFN-γ (setting [3]); in the assay on IL-17FF (setting [4])) was 100 to 1000 nM throughout.

Consider `CCOC(=O)c1c(-c2c(F)cccc2Cl)noc1-c1cnn(-c2cccc(C#N)c2)c1C(F)(F)F` [IB-32, ethyl 3-(2-chloro-6-fluorophenyl)-5-(1-(3-cyanophenyl)-5-(trifluoromethyl)-1H-pyrazol-4-yl)isoxazole-4-carboxylate], for which the IC50 in assay [1] (setting [2]) was 10 to 100 nM; in the assay on IFN-γ (setting [3]), less than 10 nM; in the assay with IL-17FF (setting [4]), less than 10 nM.

In the case of `COC(=O)c1c(-c2ccccc2Cl)noc1-c1cnn(-c2cccc(F)c2)c1C(F)(F)F` [Example I-95, methyl 3-(2-chlorophenyl)-5-(1-(3-fluorophenyl)-5-(trifluoromethyl)-1H-pyrazol-4-yl)isoxazole-4-carboxylate], the IC50 (in assay [1] (setting [2]); in the assay on IFN-γ (setting [3]); in the assay on IL-17FF (setting [4])) was less than 10 nM in each case.

For the molecule `Fc1cccc(Cl)c1-c1noc(-c2cnn(-c3cccnc3)c2C(F)(F)F)c1-c1nnco1` [Example B-15, 2-(3-(2-chloro-6-fluorophenyl)-5-(1-(pyridin-3-yl)-5-(trifluoromethyl)-1H-pyrazol-4-yl)isoxazol-4-yl)-1,3,4-oxadiazole], the IC50 (in assay [1] (setting [5]); in the assay on IFN-γ (setting [6]); in the assay on IL-17FF (setting [7])) was 100 to 1000 nM throughout.

In the case of `COCCn1ncc(-c2onc(-c3c(F)cccc3Cl)c2C(=O)OC)c1C(F)(F)F` [Example I-102, methyl 3-(2-chloro-6-fluorophenyl)-5-(1-(2-methoxyethyl)-5-(trifluoromethyl)-1H-pyrazol-4-yl)isoxazole-4-carboxylate], the figures for the IC50 (in assay [1] (setting [2]); in the assay on IFN-γ (setting [3]); in the assay on IL-17FF (setting [4])) were 100 to 1000 nM, 1000 to 10000 nM and 1000 to 10000 nM, respectively.

As to `Cc1nnc(-c2c(-c3c(F)cccc3Cl)noc2-c2cnn(-c3ccccn3)c2C(F)(F)F)s1` [Example B-27, 3-(2-chloro-6-fluorophenyl)-4-(5-methyl-1,3,4-thiadiazol-2-yl)-5-(1-(pyridin-2-yl)-5-(trifluoromethyl)-1H-pyrazol-4-yl)isoxazole], the IC50 (in assay [1] (setting [5]); with IFN-γ (setting [6]); in the assay with IL-17FF (setting [7])) was 10 to 100 nM in each case.

On to `CCOC(=O)c1c(-c2ccncc2F)noc1-c1cnn(-c2ccccn2)c1C(F)(F)F` [IB-8], for which the IC50 (in assay [1] (setting [2]); in the assay on IFN-γ (setting [3]); in the assay with IL-17FF (setting [4])) was 1000 to 10000 nM in each case.

On to `COc1cccc(Cl)c1-c1noc(-c2cnn(-c3cccnc3)c2C(F)(F)F)c1-c1cnco1` [Example B-31, 3-(2-chloro-6-methoxyphenyl)-4-(oxazol-5-yl)-5-(1-(pyridin-3-yl)-5-(trifluoromethyl)-1H-pyrazol-4-yl)isoxazole], for which the results for the IC50 (in assay [1] (setting [5]); with IFN-γ (setting [6]); in the assay on IL-17FF (setting [7])) were 1000 to 10000 nM, 100 to 1000 nM and 1000 to 10000 nM, respectively.

Regarding `O=C(O)c1c(-c2ccccc2Cl)noc1-c1cnn(-c2cccc(Cl)c2)c1C(F)(F)F` [IB-42, 3-(2-chlorophenyl)-5-(1-(3-chlorophenyl)-5-(trifluoromethyl)-1H-pyrazol-4-yl)-isoxazole-4-carboxylic acid], the IC50 (in assay [1] (setting [2]); with IFN-γ (setting [3]); with IL-17FF (setting [4])) was 1000 to 10000 nM in each case.

As to `NC(=S)c1c(-c2c(F)cccc2Cl)noc1-c1cnn(-c2cccc(Cl)c2)c1C(F)(F)F` [Example I-125, 3-(2-chloro-6-fluorophenyl)-5-(1-(3-chlorophenyl)-5-(trifluoromethyl)-1H-pyrazol-4-yl)isoxazole-4-carbothioamide], the IC50 in assay [1] (setting [2]) was in the range of 1000 to 10000 nM; in the assay with IFN-γ (setting [3]), 100 to 1000 nM; with IL-17FF (setting [4]), 100 to 1000 nM.

For the molecule `CCOC(=O)c1c(-c2ccncc2F)noc1-c1cnn(-c2cccc(F)c2)c1C(F)(F)F` [IB-14, ethyl 5-(1-(3-fluorophenyl)-5-(trifluoromethyl)-1H-pyrazol-4-yl)-3-(3-fluoropyridin-4-yl)isoxazole-4-carboxylate], the IC50 in assay [1] (setting [2]) is 1000 to 10000 nM; in the assay with IFN-γ (setting [3]) it was 1000 to 10000 nM; with IL-17FF (setting [4]), 100 to 1000 nM.

Turning to `CON(C)C(=O)c1c(-c2c(F)cccc2Cl)noc1-c1cnn(-c2ccncc2)c1C(F)(F)F` [IB-59, 3-(2-chloro-6-fluorophenyl)-N-methoxy-N-methyl-5-(1-(pyridin-4-yl)-5-(trifluoromethyl)-1H-pyrazol-4-yl)isoxazole-4-carboxamide], the IC50 (in assay [1] (setting [2]); in the assay on IFN-γ (setting [3]); in the assay with IL-17FF (setting [4])) was 1000 to 10000 nM in each case.

In the case of `Cc1nnc(-c2c(-c3c(F)cccc3Cl)noc2-c2cnn(-c3cccc(Cl)c3)c2C(F)(F)F)s1` [Example B-3, 3-(2-chloro-6-fluorophenyl)-5-(1-(3-chlorophenyl)-5-(trifluoromethyl)-1H-pyrazol-4-yl)-4-(5-methyl-1,3,4-thiadiazol-2-yl)isoxazole], the IC50 (in assay [1] (setting [5]); with IFN-γ (setting [6]); with IL-17FF (setting [7])) was less than 10 nM each time.

For the molecule `Fc1cccc(Cl)c1-c1noc(-c2cnn(-c3cccnc3)c2C(F)(F)F)c1-c1cnco1` [Example B-32, 3-(2-chloro-6-fluorophenyl)-4-(oxazol-5-yl)-5-(1-(pyridin-3-yl)-5-(trifluoromethyl)-1H-pyrazol-4-yl)isoxazole], the IC50 in assay [1] (setting [5]) was 1000 to 10000 nM; with IFN-γ (setting [6]), 100 to 1000 nM; in the assay on IL-17FF (setting [7]), 1000 to 10000 nM.

Turning to `NC(=S)c1c(-c2c(F)cccc2Cl)noc1-c1cnn(-c2ccccc2F)c1C(F)(F)F` [IB-102, 3-(2-chloro-6-fluorophenyl)-5-(1-(2-fluorophenyl)-5-(trifluoromethyl)-1H-pyrazol-4-yl)isoxazole-4-carbothioamide], the IC50 (in assay [1] (setting [2]); with IFN-γ (setting [3]); with IL-17FF (setting [4])) was 100 to 1000 nM each time.
